ChEMBL document CHEMBL5712921, “Unlocking the Recovery Potential: JMJD3 Inhibition-Mediated SAPK/JNK Signaling Inactivation Supports Endogenous Oligodendrocyte-Lineage Commitment Post Mammalian Spinal Cord Injury” (Neurochem Res, 2021)
Active and inactive are the calls of the source.

Assays:
[1] = biological target: Lysine-specific demethylase 6B (Mus musculus) (UniProt Q5NCY0); assay: Inhibition of JMJD3 in mouse C17.2 cells at 20 uM for 3 hrs; assay type: cell-based
[2] = biological target: Lysine-specific demethylase 6B (Mus musculus) (UniProt Q5NCY0); assay: […] of JMJD3 in mouse C17.2 cells at 10 uM for 3 hrs; assay type: cell-based
[3] = biological target: Lysine-specific demethylase 6B (Mus musculus) (UniProt Q5NCY0); assay: Inhibition of JMJD3 in mouse C17.2 cell assessed as increased number of olig2 positive cell at 10 uM by Hoechst staining analysis; assay type: cell-based
[4] = biological target: Lysine-specific demethylase 6B (Mus musculus) (UniProt Q5NCY0); assay: Inhibition of JMJD3 in mouse C17.2 cell assessed as decreased number of GFAP positive cell at 10 uM by Hoechst staining analysis; assay type: cell-based
[5] = biological target: Lysine-specific demethylase 6B (Mus musculus) (UniProt Q5NCY0); assay: Inhibition of JMJD3 in mouse C17.2 cell assessed as Olig2 expression at 10 uM by immunoblot analysis; assay type: cell-based
[6] = biological target: Lysine-specific demethylase 6B (Mus musculus) (UniProt Q5NCY0); assay: Inhibition of JMJD3 in mouse Neural Progenitor cell assessed as Olig2 expression at 10 uM by immunoblot analysis; assay type: cell-based
[7] = biological target: Lysine-specific demethylase 6B (Mus musculus) (UniProt Q5NCY0); assay: Inhibition of JMJD3 in mouse Neural Progenitor cell assessed as enhanced Olig2 expression at 10 uM by immunofluorescent staining; assay type: cell-based
[8] = system: Mus musculus; assay: In vivo inhibition of JMJD3 in SCI mouse model assessed as upregulation of Olig2 expression administered at 100 mg/kg, ip for 5 days followed by subcutaneous administration for 7 days by immunoblot analysis; assay type: functional, organism-based; details: time 12.0 day
[9] = system: Mus musculus; assay: In vivo inhibition of JMJD3 in SCI mouse model assessed as upregulation of H3K27me3 expression administered at 100 mg/kg, ip for 5 days followed by subcutaneous administration for 7 days by immunoblot analysis; assay type: functional, organism-based; details: time 12.0 day
[10] = species: Mus musculus; assay: […] of phosphorylated c-Jun at ser63 residue in SCI mouse model; assay type: functional, organism-based
[11] = system: Mus musculus; assay: Remyelination activity of SCI mouse model assessed as olig2 positive tube like structure administered at 100 mg/kg, ip for 5 days followed by subcutaneous administration for 7 days by immunohistochemical analysis; details: time 12.0 day

Sequence of Lysine-specific demethylase 6B (Mus musculus) (Q5NCY0 whole entry): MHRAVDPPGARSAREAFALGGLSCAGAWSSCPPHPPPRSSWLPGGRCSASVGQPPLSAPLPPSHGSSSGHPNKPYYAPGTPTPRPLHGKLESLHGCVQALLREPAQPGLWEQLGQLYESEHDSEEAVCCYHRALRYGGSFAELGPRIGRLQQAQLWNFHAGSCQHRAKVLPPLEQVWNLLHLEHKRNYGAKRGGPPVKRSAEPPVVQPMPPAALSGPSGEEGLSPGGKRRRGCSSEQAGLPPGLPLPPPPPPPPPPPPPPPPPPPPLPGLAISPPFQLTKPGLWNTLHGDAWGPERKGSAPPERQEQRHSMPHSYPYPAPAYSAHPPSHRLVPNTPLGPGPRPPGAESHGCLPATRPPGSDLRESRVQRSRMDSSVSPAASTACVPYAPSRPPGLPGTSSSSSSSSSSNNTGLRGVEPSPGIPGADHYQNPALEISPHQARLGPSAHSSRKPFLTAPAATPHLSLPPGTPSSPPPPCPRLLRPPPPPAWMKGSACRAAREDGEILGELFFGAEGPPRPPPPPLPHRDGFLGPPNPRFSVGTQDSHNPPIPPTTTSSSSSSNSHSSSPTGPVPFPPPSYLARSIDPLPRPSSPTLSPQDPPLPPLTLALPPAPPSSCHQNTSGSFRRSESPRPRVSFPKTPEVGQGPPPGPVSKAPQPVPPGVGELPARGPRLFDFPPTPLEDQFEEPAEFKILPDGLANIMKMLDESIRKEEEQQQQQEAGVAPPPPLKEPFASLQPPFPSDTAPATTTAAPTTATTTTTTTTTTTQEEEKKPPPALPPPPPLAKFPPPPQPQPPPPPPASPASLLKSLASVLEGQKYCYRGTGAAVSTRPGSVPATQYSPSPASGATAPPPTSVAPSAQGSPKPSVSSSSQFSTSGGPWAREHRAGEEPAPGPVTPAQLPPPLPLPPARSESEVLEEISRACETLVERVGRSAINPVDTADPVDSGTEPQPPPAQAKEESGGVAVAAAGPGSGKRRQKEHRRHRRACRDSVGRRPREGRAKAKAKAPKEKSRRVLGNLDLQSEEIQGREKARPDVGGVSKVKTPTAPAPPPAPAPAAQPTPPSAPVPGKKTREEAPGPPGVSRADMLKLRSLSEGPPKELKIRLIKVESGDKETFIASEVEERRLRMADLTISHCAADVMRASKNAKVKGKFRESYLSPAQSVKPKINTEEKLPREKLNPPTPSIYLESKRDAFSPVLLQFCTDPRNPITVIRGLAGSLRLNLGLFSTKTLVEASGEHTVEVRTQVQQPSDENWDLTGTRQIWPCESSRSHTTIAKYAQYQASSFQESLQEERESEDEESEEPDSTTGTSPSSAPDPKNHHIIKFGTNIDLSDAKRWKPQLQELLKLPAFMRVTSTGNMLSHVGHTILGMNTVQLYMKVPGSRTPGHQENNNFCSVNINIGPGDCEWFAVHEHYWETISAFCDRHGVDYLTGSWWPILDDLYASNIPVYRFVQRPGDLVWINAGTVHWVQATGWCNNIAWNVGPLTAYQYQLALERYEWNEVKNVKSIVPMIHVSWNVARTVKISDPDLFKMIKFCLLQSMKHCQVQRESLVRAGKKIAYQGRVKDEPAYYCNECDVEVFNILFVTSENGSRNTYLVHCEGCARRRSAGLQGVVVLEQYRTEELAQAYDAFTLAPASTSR

O=C1c2ccccc2-c2n[nH]c3cccc1c23
active: inhibition [1]

CC[C@]1(O)C[C@@H]2CN(CCc3c([nH]c4ccccc34)[C@@](C(=O)OC)(c3cc4c(cc3OC)N(C)[C@H]3[C@@](O)(C(=O)OC)[C@H](OC(C)=O)[C@]5(CC)C=CCN6CC[C@]43[C@@H]65)C2)C1
active: Activity [2]

CCOC(=O)CCNc1cc(N2CCc3ccccc3CC2)nc(-c2ccccn2)n1
active: inhibition [3] | inhibition [4] | inhibition [5] | inhibition [6] | inhibition [7] | inhibition [8] | inhibition [9] | Activity [10] | Activity [11]
